# Assay results reported in US20060014812A1, “Use of estrogen related receptor-modulating aryl ethers” (priority 2004, published 2006).
# Target: T1, ligand binding domain of ERR-α (aa 183-424) (Homo sapiens, UniProt P11474)
# T1 construct: His tag (N); thrombin cleavage site (N); made in house; host or cells: E. coli BL21(DE3+)
# T1 sequence (P11474 183-423 limits assumed): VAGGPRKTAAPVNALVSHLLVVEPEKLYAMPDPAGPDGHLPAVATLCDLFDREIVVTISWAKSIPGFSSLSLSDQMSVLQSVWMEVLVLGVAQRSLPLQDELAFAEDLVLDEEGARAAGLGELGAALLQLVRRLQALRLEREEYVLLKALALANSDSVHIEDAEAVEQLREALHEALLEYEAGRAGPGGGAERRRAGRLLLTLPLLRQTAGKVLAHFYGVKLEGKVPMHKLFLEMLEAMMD
# Assay: ThermoFluor thermal-shift binding affinity screen against ERR-α ligand binding domain
# Conditions: 100 μM test compound, 0.1 mg/mL ERR-α, pH 7.6, Kd estimated from melting temperature shift at reference temperature, read-out: TF Kd
# Experimental: The ligand binding domain of ERR-α (aa 183-424) was subcloned in frame with the N-terminal His tag and the cleavable thrombin site in pET28. The protein was expressed in BL21(DE3^+) following induction with 100 μM IPTG at 16° C. Cells were harvested after 16 hours (h) of induction and lysed in 20 mM Tris pH 7.5, 500 mM NaCl, 5 mM imidazole, 5% glycerol, protease inhibitor cocktail (-EDTA) and 2 mM β-ME. Insoluble material was removed by centrifugation at 40,000×g for 1 hr. Clarified homogenate was applied on a Ni-NTA column and after applying an imidazole gradient the protein was eluted. The protein was further purified on size exclusion chromatography to an apparent homogeneity of 95% as judged by SDS-PAGE chromatography.
# Binding affinities of compounds were determined by screening against the ligand binding domain of ERR-α using ThermoFluor® technology (U.S. Pat. No. 6,020,141 and U.S. Pat. No. 6,036,920, and Journal of Biomolecular Screening 6 (6), […], pgs 429-440). Assay plates were prepared by dispensing 2 μL of a protein-dye solution and 2 μL of the test compound in a 384-well plate. The conditions used in the screen were: 0.1 mg/mL ERR-α, 25 mM Na-phosphate buffer at pH 7.6, 200 mM NaCl, 10% glycerol, 16 μM ANS, 2% DMSO and the final concentration of test compound was 100 μM. Finally 1 μL of mineral oil was dispensed on top to prevent evaporation during the high throughput screen (HTS). ThermoFluor® is an HTS assay that measures protein unfolding based on fluorescence detection of the denatured form of the protein. The reporter for the protein unfolding event is the environmentally sensitive dye ANS that is incorporated in the screening buffer. During a typical experiment the 384-well plate is heated at a ramping rate of 1° C./min and the thermal unfolding of the protein is monitored at 1° C. intervals by measuring fluorescence changes detected through a CCD camera. Captured images are integrated and a melting curve is generated that relates fluorescence to fraction of unfolded protein as a function of temperature. For the ERR-α screen, data were collected from 30 to 80° C. at 1° C. intervals and the protein melted under the screening conditions with a characteristic melting temperature, Tm, of 52.1° C. Hits were identified from the screen by measuring an increase in the melting temperature of the protein.
# In order to estimate binding affinities, it was taken into account that the oligomeric state of ERR-α, which is a dimer (N2), and that of a single ligand (Lf) can interact per monomer subunit with equal affinity. The melting curve for such a system is described by the following three equilibria: [formula] The first equilibrium describes the denaturation of ERR-α dimers; the second equilibrium describes the dissociation of the first ligand from the single ligand occupied ERR-α dimers (N2L); and the third equilibrium describes the dissociation of the second ligand from the fully occupied ERR-α dimers (N2L2).
# Following the derivations of Brandts and Lin (Biochemistry, 29, 6967, 1990) the dissociation constants for the ligands (Kd1^t^m) can be determined at T=Tm for any ligand concentration Lt by solving numerically the conservation of mass equations: [formula] and Ku is in the unfolding equilibrium constant for ERR-α dimers that is calculated from the melting curve of the protein in the absence of ligand as described by Pantoliano et al. (J. Biomolecular Screening, 6, 429, 2001) and Bowie & Sauer (Biochemistry, 28, 7139, 1989).
# To compare dissociation constants at a common reference temperature, Tref, the following equation was used: [formula] where • Kd^ref=is the dissociation constant of the ligand at a reference temperature Tref • ΔHb^ref=is the binding enthalpy of the ligand to the protein at a reference temperature Tref. […]
row,Kd,SMILES
1,17.7 µM,"COc1cc(C=C2C(=O)c3ccccc3C2=O)ccc1OCc1cccc(F)c1 [Example 40, 2-[4-(3-Fluoro-benzyloxy)-3-methoxy-benzylidene]-indan-1,3-dione]"
2,2.2 µM,"COc1cc(/C=C2/NC(=S)NC2=O)ccc1Oc1ccc(C(F)(F)F)cc1[N+](=O)[O-] [Example 31, 5-[3-4-(2-nitro-4-trifluoromethyl-phenoxy)-benzylidene]-2-thioxo-imidazolidin-4 4-one]"
3,15.4 µM,"COc1cc(/C=C(/C(=O)c2cccs2)C(=O)C(F)(F)F)ccc1Oc1ccc(C(F)(F)F)cc1[N+](=O)[O-] [Example 29, 4,4,4-Trifluoro-2-[3-methoxy-4-(2-nitro-4-trifluoromethyl-phenoxy)-benzylidene]-1-thiophen-2-yl-butane-1,3-dione]"
4,3.18 µM,"COc1cc(/C=C2\SC(=O)NC2=O)ccc1OCc1cccc(F)c1 [Example 38, 5-[4-(3-Fluoro-benzyloxy)-3-methoxy-benzylidene]-thiazolidine-2,4-dione]"
5,0.608 µM,"COc1cc(/C=C(\C#N)C(=O)c2ccccc2)ccc1Oc1ccc(C(F)(F)F)cc1[N+](=O)[O-] [Example 28, 2-Benzoyl-3-[3-methoxy-4-(2-nitro-4-trifluoromethyl-phenoxy)-phenyl]-acrylonitrile]"
6,24.7 µM,"COc1ccc(Oc2ccc(C=C3SC(N)=NC3=O)cc2)cc1 [Example 9, 2-Amino-5-[4-(4-methoxy-phenoxy)-benzylidene]-thiazol-4-one]"
7,0.414 µM,"COc1cc(/C=C2\SC(=O)NC2=O)ccc1OCc1ccc(F)cc1Cl [Example 37, 5-[4-(2—Chloro-4-fluoro-benzyloxy)-3-methoxy-benzylidene]-thiazolidine-2,4-dione]"
8,0.52 µM,"COC(=O)c1ccc(Oc2ccc(C=C3C(=O)c4ccccc4C3=O)cc2OC)c([N+](=O)[O-])c1 [Example 35, 4-[4-(1,3-Dioxo-indan-2-ylidenemethyl)-2-methoxy-phenoxy]-3-nitro-benzoic acid methyl ester]"
9,9.5 µM,"O=C1NC(=O)/C(=C/c2ccc(Oc3ccccc3)cc2)S1 [Example 20, 5-(4-Phenoxy-benzylidene)-thiazolidine-2,4-dione]"
10,> 200 µM,"O=C1NC(=O)/C(=C\c2cccc(Oc3cccc(Cl)c3)c2)S1 [Example 21, 5-[3-(3-Chloro-phenoxy)-benzylidene]-thiazolidine-2,4-dione]"
11,0.234 µM,"COc1cc(/C=C2\SC(=O)NC2=O)ccc1Oc1ccc(C(F)(F)F)cc1[N+](=O)[O-] [Example 10, 5-[3-Methoxy-4-(2-nitro-4-trifluoromethyl-phenoxy)-benzylidene]-thiazolidine-2,4-dione]"
12,4.86 µM,"CCOC(=O)CN1C(=O)S/C(=C\c2ccc(Oc3ccc(C(F)(F)F)cc3[N+](=O)[O-])c(OC)c2)C1=O [Example 17, {5-[3-Methoxy-4-(2-nitro-4-trifluoromethyl-phenoxy)-benzylidene]-2,4-dioxo-thiazolidin-3-yl}-acetic acid ethyl ester]"
13,1.16 µM,"COc1cc(/C=C2\C(=O)N(c3ccccc3)N=C2C)ccc1Oc1ccc(C(F)(F)F)cc1[N+](=O)[O-] [Example 30, 4-[3-Methoxy-4-(2-nitro-4-trifluoromethyl-phenoxy)-benzylidene]-5-methyl-2-phenyl-2,4-dihydro-pyrazol-3-one]"
14,0.588 µM,"O=C1NC(=O)/C(=C/c2ccc(Oc3ccc(C(F)(F)F)cc3[N+](=O)[O-])cc2)S1 [Example 14, 5-[4-(2-Nitro-4-trifluoromethyl-phenoxy)-benzylidene]-thiazolidine-2,4-dione]"
15,15.2 µM,"COc1cc(/C=C(\C#N)c2nc3ccccc3[nH]2)ccc1Oc1ccc(C(F)(F)F)cc1[N+](=O)[O-] [Example 26, 2-(1H-Benzoimidazol-2-yl)-3-[3-methoxy-4-(2-nitro-4-trifluoromethyl-phenoxy)-phenyl]-acrylonitrile]"
16,2.7 µM,"CCCCN1C(=O)S/C(=C\c2ccc(Oc3ccc(C(F)(F)F)cc3[N+](=O)[O-])c(OC)c2)C1=O [Example 19, 3-Butyl-5-[3-methoxy-4-(2-nitro-4-trifluoromethyl-phenoxy)-benzylidene]-thiazolidine-2,4-dione]"
17,5.06 µM,"COc1cc(C=C(C#N)C#N)ccc1Oc1ccc(C(F)(F)F)cc1[N+](=O)[O-] [Example 22, 2-[3-Methoxy-4-(2-nitro-4-trifluoromethyl-phenoxy)-benzylidene]-malononitrile]"
18,1.38 µM,"COc1cc(/C=C(\C#N)c2ccccn2)ccc1Oc1ccc(C(F)(F)F)cc1[N+](=O)[O-] [Example 27, 3-[3-Methoxy-4-(2-nitro-4-trifluoromethyl-phenoxy)-phenyl]-2-pyridin-2-yl-acrylonitrile]"
19,2.54 µM,"CCOC(=O)/C(C#N)=C/c1ccc(Oc2ccc(C(F)(F)F)cc2[N+](=O)[O-])c(OC)c1 [Example 24, 2-Cyano-3-[3-methoxy-4-(2-nitro-4-trifluoromethyl-phenoxy)-phenyl]-acrylic acid ethyl ester]"
20,20.3 µM,"CCN1C(=O)/C(=C\c2ccc(Oc3ccc(C(F)(F)F)cc3[N+](=O)[O-])c(OC)c2)SC1=S [Example 36, 3-Ethyl-5-[3-methoxy-4-(2-nitro-4-trifluoromethyl-phenoxy)-benzylidene]-2-thioxo-thiazolidin-4-one]"
21,0.0692 µM,"COC(=O)c1ccc(Oc2ccc(/C=C3\SC(=O)NC3=O)cc2OC)c([N+](=O)[O-])c1 [Example 18, 4-[4-(2,4-Dioxo-thiazolidin-5-ylidenemethyl)-2-methoxy-phenoxy]-3-nitro-benzoic acid methyl ester]"
22,0.473 µM,"COc1cc(C=C2C(=O)c3ccccc3C2=O)ccc1Oc1ccc(C(F)(F)F)cc1[N+](=O)[O-] [Example 33, 2-[3-4-(2-nitro-4-trifluoromethyl-phenoxy)-benzylidene]-indan-1,3-dione]"
23,14.6 µM,"COc1cc(/C=C(\C#N)S(=O)(=O)c2ccccc2)ccc1Oc1ccc(C(F)(F)F)cc1[N+](=O)[O-] [Example 23, 2-Benzenesulfonyl-3-[3-methoxy-4-(2-nitro-4-trifluoromethyl-phenoxy)-phenyl]-acrylonitrile]"
24,79.5 µM,"COc1cc(/C=C2\SC(=O)NC2=O)cc(Cl)c1Oc1ccc(C(F)(F)F)cc1[N+](=O)[O-] [Example 13, 5-[3-Chloro-5-methoxy-4-(2-nitro-4-trifluoromethyl-phenoxy)-benzylidene]-thiazolidine-2,4-dione]"
25,3.53 µM,"COc1ccc(Oc2ccc(/C=C3\SC(=O)NC3=O)cc2)cc1 [Example 16, 5-[4-(4-Methoxy-phenoxy)-benzylidene]-thiazolidine-2,4-dione]"
26,7.17 µM,"COc1cc(/C=C(\C#N)c2cccs2)ccc1Oc1ccc(C(F)(F)F)cc1[N+](=O)[O-] [Example 25, 3-[3-Methoxy4-(2-nitro4-trifluoromethyl-phenoxy)-phenyl]-2-thiophen-2-yl-acrylonitrile]"
27,0.795 µM,"COc1cc(/C=C2\C(=O)ON=C2c2ccccc2)ccc1Oc1ccc(C(F)(F)F)cc1[N+](=O)[O-] [Example 32, 4-[3-4-(2-nitro-4-trifluoromethyl-phenoxy)-benzylidene]-3-phenyl-4H-isoxazol-5-one]"
